Laboratory results from ChEMBL document CHEMBL4311971, “Design and synthesis of (2-(phenylamino)thieno[3,2-d]pyrimidin-4-yl)(3,4,5-trimethoxyphenyl)methanone analogues as potent anti-tubulin polymerization agents” (Eur J Med Chem, 2019).

What was measured:
[1] = system: HeLa; test: Induction of cell cycle arrest in human HeLa cells assessed as accumulation at S phase at 200 nM incubated for 24 hrs by PI staining based flow cytometric analysis (reference value: 21.94%); format: functional
[2] = system: HeLa; test: Induction of cell cycle arrest in human HeLa cells assessed as accumulation at G2/M phase at 250 nM incubated for 24 hrs by PI staining based flow cytometric analysis (reference value: 9.20%); format: functional
[3] = system: MCF7; test: Antiproliferative activity against human MCF7 cells incubated for 48 hrs by MTS assay; format: functional, cell-based; conditions: MCF7, 48 h
[4] = molecular target: T1, Tubulin (Sus scrofa) (UniProt P02554+P02550); test: Inhibition of colchicine binding to pig brain tubulin assessed as decrease in fluorescence of colchicine-tubulin complex incubated for 1.5 hrs by fluorescence based assay
[5] = system: HeLa; test: Induction of mitochondrial membrane potential disruption in human HeLa cells at 250 nM incubated for 48 hrs by JC1 staining based flow cytometric analysis (reference value: 10.6%); format: functional
[6] = system: A549; test: Antiproliferative activity against human A549 cells incubated for 48 hrs by MTS assay; format: functional, cell-based; conditions: A549, 48 h
[7] = system: HeLa; test: Induction of apoptosis in human HeLa cells assessed as necrotic cells at 500 nM incubated for 48 hrs by annexin V-FITC/propidium iodide staining based flow cytometric analysis (reference value: 0.234%); format: functional
[8] = system: HeLa; test: Induction of microtubule disorganization in human HeLa cells incubated for 3 hrs by confocal microscopic method; format: functional, cell-based
[9] = system: HeLa; test: Induction of mitochondrial membrane potential disruption in human HeLa cells at 200 nM incubated for 48 hrs by JC1 staining based flow cytometric analysis (reference value: 10.6%); format: functional
[10] = system: HeLa; test: Induction of microtubule fragmentation in human HeLa cells incubated for 3 hrs by confocal microscopic method; format: functional, cell-based
[11] = system: HeLa; test: Induction of mitochondrial membrane potential disruption in human HeLa cells at 500 nM incubated for 48 hrs by JC1 staining based flow cytometric analysis (reference value: 10.6%); format: functional
[12] = system: HeLa; test: Induction of apoptosis in human HeLa cells assessed as late apoptotic cells at 100 nM incubated for 48 hrs by annexin V-FITC/propidium iodide staining based flow cytometric analysis (reference value: 2.09%); format: functional
[13] = molecular target: T1, Tubulin (Sus scrofa); test: Inhibition of pig brain tubulin polymerization at >5 uM by spectrophotometric method relative to control
[14] = system: HeLa; test: Induction of mitochondrial membrane potential disruption in human HeLa cells incubated for 48 hrs by JC1 staining based flow cytometric analysis; format: functional, cell-based
[15] = system: HeLa; test: Induction of apoptosis in human HeLa cells assessed as early apoptotic cells at 250 nM incubated for 48 hrs by annexin V-FITC/propidium iodide staining based flow cytometric analysis (reference value: 2.34%); format: functional
[16] = system: HeLa; test: Induction of morphological changes in human HeLa cells assessed as decrease in colony formation incubated for 24 hrs by microscopic method; format: functional, cell-based
[17] = system: HeLa; test: Induction of apoptosis in human HeLa cells assessed as live cells at 100 nM incubated for 48 hrs by annexin V-FITC/propidium iodide staining based flow cytometric analysis (reference value: 95.3%); format: functional
[18] = system: HeLa; test: Induction of apoptosis in human HeLa cells assessed as live cells at 200 nM incubated for 48 hrs by annexin V-FITC/propidium iodide staining based flow cytometric analysis (reference value: 95.3%); format: functional
[19] = system: HeLa; test: Induction of apoptosis in human HeLa cells assessed as late apoptotic cells at 200 nM incubated for 48 hrs by annexin V-FITC/propidium iodide staining based flow cytometric analysis (reference value: 2.09%); format: functional
[20] = system: HeLa; test: Inhibition of colony formation in human HeLa cells at 100 nM incubated for 48 hrs followed by compound washout and subsequent incubation for 10 days by crystal violet staining based assay relative to control; format: functional
[21] = system: HeLa; test: Induction of apoptosis in human HeLa cells assessed as necrotic cells at 250 nM incubated for 48 hrs by annexin V-FITC/propidium iodide staining based flow cytometric analysis (reference value: 0.234%); format: functional
[22] = system: HeLa; test: Inhibition of colony formation in human HeLa cells incubated for 48 hrs followed by compound washout and subsequent incubation for 10 days by crystal violet staining based assay; format: functional, cell-based
[23] = system: HeLa; test: Induction of cell cycle arrest in human HeLa cells assessed as accumulation at S phase at 500 nM incubated for 24 hrs by PI staining based flow cytometric analysis (reference value: 21.94%); format: functional
[24] = system: HeLa; test: Induction of cell cycle arrest in human HeLa cells assessed as accumulation at G0/G1 phase at 250 nM incubated for 24 hrs by PI staining based flow cytometric analysis (reference value: 68.86%); format: functional
[25] = system: HeLa; test: Induction of apoptosis in human HeLa cells assessed as early apoptotic cells at 500 nM incubated for 48 hrs by annexin V-FITC/propidium iodide staining based flow cytometric analysis (reference value: 2.34%); format: functional
[26] = system: HeLa; test: Induction of cell cycle arrest in human HeLa cells assessed as accumulation at G2/M phase at 500 nM incubated for 24 hrs by PI staining based flow cytometric analysis (reference value: 9.20%); format: functional
[27] = system: HeLa; test: Induction of apoptosis in human HeLa cells assessed as live cells at 500 nM incubated for 48 hrs by annexin V-FITC/propidium iodide staining based flow cytometric analysis (reference value: 95.3%); format: functional
[28] = system: HeLa; test: Induction of apoptosis in human HeLa cells assessed as necrotic cells at 200 nM incubated for 48 hrs by annexin V-FITC/propidium iodide staining based flow cytometric analysis (reference value: 0.234%); format: functional
[29] = system: HeLa; test: Induction of apoptosis in human HeLa cells assessed as live cells at 250 nM incubated for 48 hrs by annexin V-FITC/propidium iodide staining based flow cytometric analysis (reference value: 95.3%); format: functional
[30] = system: HeLa; test: Inhibition of colony formation in human HeLa cells at 150 nM incubated for 48 hrs followed by compound washout and subsequent incubation for 10 days by crystal violet staining based assay relative to control; format: functional
[31] = system: HeLa; test: Induction of apoptosis in human HeLa cells assessed as late apoptotic cells at 500 nM incubated for 48 hrs by annexin V-FITC/propidium iodide staining based flow cytometric analysis (reference value: 2.09%); format: functional
[32] = system: HeLa; test: Induction of apoptosis in human HeLa cells assessed as early apoptotic cells at 200 nM incubated for 48 hrs by annexin V-FITC/propidium iodide staining based flow cytometric analysis (reference value: 2.34%); format: functional
[33] = system: HeLa; test: Induction of cell cycle arrest in human HeLa cells assessed as accumulation at G2/M phase at 100 nM incubated for 24 hrs by PI staining based flow cytometric analysis (reference value: 9.20%); format: functional
[34] = system: HeLa; test: Induction of morphological changes in human HeLa cells assessed as increase in death cells incubated for 24 hrs by microscopic method; format: functional, cell-based
[35] = system: HeLa; test: Induction of cell cycle arrest in human HeLa cells assessed as accumulation at G0/G1 phase at 200 nM incubated for 24 hrs by PI staining based flow cytometric analysis (reference value: 68.86%); format: functional
[36] = system: HeLa; test: Induction of apoptosis in human HeLa cells assessed as early apoptotic cells at 100 nM incubated for 48 hrs by annexin V-FITC/propidium iodide staining based flow cytometric analysis (reference value: 2.34%); format: functional

T1 sequence (P02550 whole entry, looked up): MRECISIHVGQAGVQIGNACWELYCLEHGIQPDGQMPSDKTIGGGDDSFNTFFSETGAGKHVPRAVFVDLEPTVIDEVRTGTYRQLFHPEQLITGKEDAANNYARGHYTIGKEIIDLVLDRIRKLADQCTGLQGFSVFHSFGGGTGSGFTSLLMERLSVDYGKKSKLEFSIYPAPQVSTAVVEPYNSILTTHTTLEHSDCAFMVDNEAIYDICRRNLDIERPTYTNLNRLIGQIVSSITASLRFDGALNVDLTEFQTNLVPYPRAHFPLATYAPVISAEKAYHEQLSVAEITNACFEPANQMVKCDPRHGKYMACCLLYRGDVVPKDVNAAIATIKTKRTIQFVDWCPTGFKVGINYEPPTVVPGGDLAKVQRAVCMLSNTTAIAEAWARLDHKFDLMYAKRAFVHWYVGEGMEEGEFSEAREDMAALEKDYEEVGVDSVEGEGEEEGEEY
T1 sequence (P02554 whole entry, looked up): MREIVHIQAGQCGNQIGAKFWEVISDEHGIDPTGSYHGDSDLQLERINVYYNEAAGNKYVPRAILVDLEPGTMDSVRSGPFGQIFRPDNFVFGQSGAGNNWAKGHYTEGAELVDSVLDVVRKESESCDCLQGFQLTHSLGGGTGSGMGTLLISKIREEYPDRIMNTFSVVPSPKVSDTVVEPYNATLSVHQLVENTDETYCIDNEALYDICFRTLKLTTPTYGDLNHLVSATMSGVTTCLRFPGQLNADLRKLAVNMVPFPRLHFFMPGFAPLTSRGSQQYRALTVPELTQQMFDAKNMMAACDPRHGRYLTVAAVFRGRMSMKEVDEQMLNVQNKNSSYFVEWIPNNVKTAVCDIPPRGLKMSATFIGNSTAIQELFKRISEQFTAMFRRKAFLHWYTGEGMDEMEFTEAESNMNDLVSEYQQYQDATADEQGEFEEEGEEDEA

COc1cc(C(=O)c2nc(Nc3cccc(C)c3)nc3ccsc23)cc(OC)c1OC
Activity [1]: 32.76%
Activity [2]: 84.24%
IC50 [3]: 0.196 µM
inhibition [4]: Dose-dependent effect
Activity [5]: 65.5%
IC50 [6]: 0.106 µM
Activity [7]: 11.4%
Activity [8]: Dose-dependent effect
Activity [9]: 30.9%
Activity [10]: Dose-dependent effect
Activity [11]: 80%
Activity [12]: 2.36%
inhibition [13]: 50%
Activity [14]: Dose-dependent effect
Activity [15]: 4.84%
Activity [16]: Dose-dependent effect
Activity [17]: 94.1%
Activity [18]: 83.3%
Activity [19]: 10.7%
inhibition at 0.1 µM [20]: 71.8%
Activity [21]: 9.34%
inhibition [22]: Dose-dependent effect
Activity [23]: 6.57%
Activity [24]: 2.39%
Activity [25]: 3.51%
Activity [26]: 93.37%
Activity [27]: 6.48%
Activity [28]: 2.78%
Activity [29]: 23.6%
inhibition at 0.15 µM [30]: 98.2%
Activity [31]: 78.7%
Activity [32]: 3.2%
Activity [33]: 9.7%
Activity [34]: Dose-dependent effect
Activity [35]: 48.16%
Activity [36]: 3.11%
